“Also recorded” adds a separate entry of the source. Read-outs that look alike come from different tables or passages of the source.
Legend:
[1] = system: Hedgehog signaling (TM3-Gli-Luc); assay: TM3-Gli-Luc luciferase reporter assay stimulated with 20 nM SAG; assay type: cell-based; settings: for EC50: read-out: TM3-Gli-Luc EC50
How it was run: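 TM3-Gli-Luc cells on 0.1% gelatin in DMEM/F12 with 2.5% FBS, treated 48 h with compound plus 20 nM SAG. Steady-Glo luminescence normalized to CellTiter-Glo viability, DMSO-only (no SAG) background subtracted, percent of SAG control. EC50 averaged from ≥2 independent days ±SEM.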

TM3-Gli-Luc cells = assay: TM3-Gli-Luc cell viability (Cell Titer Glo, LD50); assay type: cell-based
Description: On the day of cell plating, 96-well plates were coated with 50 μL/well of sterile 0.1% gelatin for 5 minutes then aspirated and replaced with 50 μL/well of TM3 Culture Medium. TM3-Gli-Luc cells were seeded at a density of 5,000 cells/well in TM3 Culture Medium and incubated for 24 hours. A master mix of 20 nM SAG in TM3Luc Medium was prepared, and small molecule solutions were prepared by adding the desired amount of compound from 10 mM DMSO stock to TM3Luc Medium containing 20 nM SAG. Negative control was prepared by adding an equi-volume amount of DMSO as compared to small molecule treated conditions to TM3Luc Medium not containing SAG. Cell plating medium was aspirated and replaced with 100 μL/well of prepared small molecule-containing media, and plates were incubated for 48 hours before proceeding to luciferase activity and cell viability reading.
TM3Luc Medium from compound treated plates was aspirated and replaced with 82 μL/well of Glo Lysis Buffer (Promega, Madison, Wis., USA), and plates were shaken at 300 rpm and room temperature for 12 minutes. Lysate was split between two white 96-well plates, 45 μL/well and 25 μL/well for luciferase reading and cell viability respectively. For luciferase activity monitoring, 45 μL/well of Steady Glo (Promega, Madison, Wis., USA) was added to 45 μL/well of cell lysate, incubated at room temperature for 5 minutes, then luminescence was measured on a Turner Biosystems Modulus Microplate Reader (Sunnyvale, Calif., USA) with an integration time of 0.5 seconds. For cell viability measurement, 25 μL/well of Cell Titer Glo (Promega, Madison, Wis., USA) (prepared by 1:10 dilution with Glo Lysis Buffer) was added to 25 μL/well of cell lysate, incubated at room temperature for 5 minutes, then luminescence was measured as above.
All raw data was divided by the average of positive control cell titer data to arrive at percent cells remaining compared to positive control. […] At least two independent assays tested on separate days were averaged to provide LD50±standard error of the mean.

Gli1 transcription = assay: Sufu−/− mouse embryonic fibroblasts qRT-PCR; assay type: cell-based
Source text: (§1) In light of EGM1's ability to halt Hh transcriptional activity at a node downstream of the negative regulator Sufu, and thus also downstream of Smo, we sought to confirm mode of action retention with our most promising analogs. Therefore, we employed Sufu−/− mouse embryonic fibroblasts (MEF) that display constitutively active transcription of Hh target genes Gli1 and Ptch1 and monitored the ability of our optimized analogs to repress signaling via quantitative reverse transcription-PCR (qRT-PCR). […] We then evaluated improved analogs from multiple structural classes including those from Table 1 with cyclohexylthiophene cores as well as from Table 13 with structurally distinct core modifications.
(§2) Sufu^−/− cells were seeded into 12-well plates at a density of 100,000 cells/well in D10 FBS and incubated for 24 hours. Small molecule solutions were prepared by adding the desired amount of compound from 10 mM DMSO stock to D0.5 FBS. Negative control was prepared by adding an equi-volume amount of DMSO to D0.5 FBS as compared to small molecule treated conditions. Cell plating medium was aspirated and replaced with 1 mL of prepared small molecule-containing media, and plates were incubated for 24 hours before proceeding to RNA isolation.
(§3) Cells were washed 1× with 1× phosphate-buffered saline (PBS) then RNA was isolated using the Qiagen RNeasy Mini Kit (Qiagen, Germantown, Md., USA) according to the manufacturer's protocol, eluting RNA from the spin column with 30 μL of RNase-free water. RNA was placed on ice and immediately subjected to reverse transcription. Remaining RNA was stored at −80° C.
(§4) Reverse transcription polymerase chain reaction (RT-PCR) was performed with the Applied Biosystems High Capacity cDNA Reverse Transcription Kit (ThermoFisher Scientific, Waltham, Mass., USA) using an Eppendorf MasterCycler. Each 20 μL reaction contained 0.5 μg of total RNA, 2 μL of 10×RT Buffer, 0.8 μL of 25×dNTP Mix (100 mM), 2 μL of 10×RT Random Primers, 1 μL of MultiScribe® Reverse Transcriptase (50 U/μL), 1 μL of Recombinant RNasin® Ribonuclease Inhibitor (40 U/μL) (Promega, Madison, Wis., USA), and nuclease-free water. Reverse transcription was performed with the following program: 25° C. for 10 minutes, 37° C. for 120 minutes, and 85° C. for 5 minutes. The cDNA was subjected to quantitative real-time PCR (Q-PCR) or stored at −20° C.
(§5) Quantitative real-time PCR was performed on an Applied Biosystems 7900 HT Fast Real Time PCR System in 384-well format. Each cDNA sample was assayed in triplicate with both probe of interest and control probe. Master mixes for each probe were prepared corresponding to 10 μL of Applied Biosystems TaqMan Universal PCR Master Mix (ThermoFisher Scientific, Waltham, Mass., USA), 1 μL of primer, and nuclease-free water corresponding to a volume providing 20 μL reactions when loading an average of 50 ng of cDNA. Quantitative real-time PCR was run with the following thermal cycling protocol: 50° C. for 2 min., 95° C. for 10 min., and 40 cycles of 95° C. for 15 seconds, 60° C. for 1 min., then fluorescence reading. The following FAM probes were purchased from Life Technologies (Carlsbad, Calif., USA): mouse GAPDH, Mm99999915_g1; mouse Gli1, Mm00494646_g1; mouse Ptch1, Mm01306905_m1.
(§6) Quantitative real-time PCR data for Hh signaling inhibition was quantitated using the ΔΔCt method. Control probe values were subtracted from probe of interest values to arrive at the ΔCt value. The ΔCt value was transformed by 2-^ΔCt to arrive at the ΔΔCt value. All ΔΔCt values were divided by the average negative control ΔΔCt value to provide percent Hh signaling activity. Percent inhibition values were derived by calculating the inverse of percent activity. Data is reported as mean±standard error of the mean (SEM), representing at least two biological replicates, each quantitated in triplicate.

Ptch1 transcription = assay: Sufu−/− mouse embryonic fibroblasts qRT-PCR; assay type: cell-based
Source text: as §1, §2, §3, §4, §5, §6

[2] = Lipophilic efficiency (LipE = pEC50 − cLogP) and cLogP
How it was run: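 pEC50 came from TM3-Gli-Luc Gli-responsive luciferase reporter cells stimulated with 20 nM SAG, with non-specific cytotoxicity monitored in parallel. LipE was calculated by subtracting cLogP from pEC50.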

[3] = system: Hedgehog signaling (Gli-Luc reporter); settings: read-out: reported EC50 in the Shh-LIGHT2 reporter line; cited from earlier work
Hh signaling = Hh signaling inhibition (assay not named, data not shown); assay type: cell-based
[4] = system: Hedgehog signaling (Gli-Luc reporter); assay: Hh Gli-Luciferase reporter assay in Shh-Light2 cells; assay type: cell-based, mouse; settings: Shh-conditioned media
How it was run: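 Shh-Light2 cells with stable Gli-luciferase were stimulated by Shh-conditioned medium (or 3 μM purmorphamine or 20 nM SAG), or transfected with Gli-2, PDE4D3 or DN-PDE4D3. Overnight compound incubation preceded Steady-Glo read-out, normalized to CellTiter-Glo.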

[5] = system: total cellular cAMP levels; assay: cAMP assay (total cellular cAMP, EIA chemiluminescence); assay type: cell-based
Description: Shh-Light2 cells were seeded in a 96-well plate and incubated overnight. Varying concentrations of Rolipram or Eggmanone (0.013 uM-30 uM) or DMSO only were added to the cells in the absence of serum and incubated 30 minutes, at which time forskolin was added for a final concentration of 1 uM. After an additional 15 minutes, cells were washed with PBS and assayed for cAMP levels using EIA based chemiluminescence kit according to the manufacturer's protocol (Cell Signaling Technologies, Danvers, Mass.).

mouse aorta = assay: Myography of cannulated mouse aorta
Source text: For myography, to test the vascular tone for presense of downstream or off target effects, mouse aorta was mounted and cannulated on a closed system. A physiological buffer (with respect to pH, CO2, and temperature) was circulated through the vessel.

PKA activation = assay: Immunostaining of autophosphorylated PKA catalytic subunit in NIH3T3 cells; assay type: cell-based; settings: SAG-stimulated NIH3T3 cells, Egm 5 μM, Rolipram 10 μM
Description: NIH3T3 cells were plated on Poly-D-Lysine-coated glass coverslips and were cultured at 37° C., 5% CO2 in DMEM medium containing 10% fetal bovine serum until reaching 75% confluency. For one set of experiments, cells were then transfected with VSV-tagged PDE4D3 plasmid (gift from Miles Houslay, University of Glasgow, Scotland, UK) using Fugene6 transfection reagent (Roche, Indianapolis, Ind.) per manufacturer's protocol. Afterward, cell medium was replaced with DMEM/0.5% FBS containing either 5 μM eggmanone or DMSO and incubated overnight at 37° C., 5% CO2. Cells were fixed in 4% PFA at room temperature for 10 minutes prior to permeabilization, blocking, and staining with primary antibodies against Arl13b (gift of Tamary Caspary, Emory University, Atlanta, Ga.) and VSV (AbCam, Cambridge, Mass.). Fluorescent immunocytochemistry was performed using species-specific, secondary antibodies (Jackson Immunoresearch, West Grove, Pa.). For additional immunocytochemistry experiment, cells were treated with 20 nM SAG in the presence or absence of 5 uM Eggmanone. After overnight incubation, cells were washed with PBS, fixed for 10 minutes in 4% PFA, permeabilized 20 minutes at −20C with cold methanol, blocked with PBS/1% BSA, and incubated with primary antibodies to phospho-PKA catalytic domain Thr197 (Cell Signaling, Danvers, Mass.) and then to Arl13b. An additional overnight blocking step using unconjugated rabbit IgG was required between primary antibody incubations since both antibodies were produced in rabbit. Fluorescent conjugated secondary antibodies were used for visualization. Data analysis was performed in part through the use of the VUMC Cell Imaging Shared Resource.
Using ImageJ software (National Institutes of Health, developed by W. Rasband), a region of interest was created using the magic wand tool on Arl13b channel and transposed to the Gli2 channel, and integrated density was measured and reported as arbitrary units (a.u.). For phospho-PKA, using ImageJ, a line selection tool was used to select a line projected through the length of the primary cilia and an equal length beyond. The intensity values were potted and the cumulative florescence (area under the curve) was calculated for three cilia, blindly, for each treatment. These values for cilia and pericilia domain were analyzed by a two tailed students t-test. For correlation analysis, correlation coefficient for intensity of gamma-tubulin and phosphor-PKA were calculated and compared among treatments with students t-test.

cAMP = assay: FRET-based cAMP sensors in NIH3T3 cells; assay type: cell-based; settings: 2 μM
Source text: To visualize changes in cAMP concentrations in individual cells and cellular regions, we utilized two distinct FRET (fluorescence resonance energy transfer)-based cAMP sensors: the Epac-FRET sensor (mTurquoiseΔ-Epac(CD, ΔDEP)-cp173 Venus-Venus)^35, which detects cytosolic cAMP concentration and the PKA-based cAMP sensor (PKAC-YFP and PKARII-CFP combination), which has been used to document changes in local cAMP levels in the centrosome and basal body.

[6] = Sufu−/− MEF, qRT-PCR, compounds tested at 10 μM, normalized to DMSO, mean ± SEM

In the case of `CN(C)c1ccccc1CN1CCCN(Cc2ccccc2N(C)C)C1c1ccncc1` [GANT-61, reference compound], the “Hh inhibitory activity / potency in words” value ([1]; 20 nM SAG) is reported as “slightly higher than the reported”, the EC50 ([1]; 20 nM SAG, mean ± standard error of the mean) is reported as 9.27 ± 1.8 µM and the EC50 ([1]; TM3-Gli-Luc reporter line stimulated with 20 nM SAG, mean ± SEM, Table 14) is reported as 9.27 ± 1.8 µM. The “TM3-Gli-Luc LD50” value (TM3-Gli-Luc cells) was over 50 µM, the “inhibition of Gli1 transcription” value (Gli1 transcription; 10 μM) was “approximately 50%” and the “Sufu−/− % Inh. Gil1 mRNA” value (Gli1 transcription; [6]) was 43.8 ± 5.2%. The “inhibition of Ptch1 transcription” value (Ptch1 transcription; 10 μM) was “approximately 50%”, the “Sufu−/− % Inh. Ptch1 mRNA” value (Ptch1 transcription; [6]) was 52.8 ± 2.7% and the LipE ([2]; Calculated as pEC50 - cLogP, Molinspiration Cheminformatics) was 1.34. The LipE ([2]; pEC50 - cLogP, Table 14) was 1.34 and the EC50 [3] was about 5 µM.
In the case of `O=C(Nc1c(Cl)cncc1Cl)c1ccc(OC(F)F)c(OCC2CC2)c1` [Roflumilast], the “Potency for Hh signaling inhibition” value (Hh signaling) is reported as “micromolar potency”.
With `COc1ccc(C2CNC(=O)C2)cc1OC1CCCC1` (centres unmarked) [rolipram, reference compound] the “Sonic hedgehog (SHH)-responsive Gli-luciferase reporter activity” value [4] was “did not bring the reporter activity down to the baseline even at very high concentrations”, the “Sonic hedgehog (SHH)-responsive Gli-luciferase reporter activity” value ([4]; listed as Rolipram) was “incomplete even at high concentrations” and the “Total cellular cAMP levels” value [5] was “substantially; also recorded: elicited robust cAMP accumulation”. For the same compound, the “Total cellular cAMP levels” value ([5]; listed as Rolipram) was “increased total cellular cAMP levels”, the “Vessel diameter after pre-constriction” value (mouse aorta) was “caused the vessel to dilate” and the “PKA activation (phospho-PKA-C staining), spatial distribution” value (PKA activation) was “more diffuse increase in cytoplasmic phospho-PKA levels; also recorded: more diffuse increase in phospho-PKA staining”. The “PKA activation (phospho-PKA-C staining), spatial distribution” value (PKA activation; listed as Rolipram) was “increases PKA activation more diffusely” and the “Cytosolic FRET signal (Epac-FRET sensor)” value (cAMP) was “significantly increased the FRET signal throughout the cell”.

Reference: US10329304B2, “Compounds and methods for inhibition of hedgehog signaling and phosphodiesterase” (Vanderbilt University, priority 2014, dated 2019)
